Where a name gives a salt, the structure may show the parent alone. Blank lines part the entries; values can stand above or below the compound they belong to.
How the values were obtained:
Assay type in all cases: cell-based
[1] = tested on: DU-145 prostate cancer cell line; assay: Cytotoxicity / growth inhibition (SRB), DU145; conditions: 96 hours drug exposure, read-out: IC50 ± SEM, DU145
Experimental: (§1) Cells were removed from stock flasks using trypsin, centrifuged, resuspended in fresh media, and plated at a density of approximately 2,000 cells/well in 96-well culture plates. Final drug concentrations ranged from 0.05 to either 10 or 50 μM. Control experiments with no drug added (negative control) and 5-fluorouracil added (positive control) were performed in parallel. Media was removed and replaced at 48 hours to minimize the effects of drug degradation during the course of the experiment. After 96 hours drug exposure, cells were fixed by the addition of cold 50% trichloroacetic acid (TCA) and incubation at 4° C. for 1 hour. Fixed cells were stained with sulforhodamine B (SRB), and cell number was determined by comparison of absorbance at 540 nm, as compared to a standard curve of cell number versus absorbance. Experiments were performed in duplicate.

PSP24 PLGFR = PSP24 PLGFR (Xenopus laevis, UniProt P79945); assay: Xenopus oocyte assay: LPA-induced oscillatory chloride currents (two-electrode voltage clamp); conditions: for inhibition of LPA-induced chloride currents: Xenopus oocytes, extracellular application; for reversibility of inhibition of LPA-induced chloride currents: after washing the oocyte; for threshold to elicit a response alone: compound alone, agonist response
Experimental: Xenopus oocytes which endogenously express PSP24 PLGFR were used to screen the newly designed and synthesized compounds for their LPA inhibitory activity.
(§2) Oocytes were obtained from xylazine-anesthetized adult Xenopus laevis frogs (Carolina Scientific, Burlington, N.C.) under aseptic conditions and prepared for experiment. […] Oocytes were kept in Barth's solution in an incubator between 17-20° C. and were used for 2-7 days after isolation.
(§3) Electrophysiological recordings were carried out using a standard two-electrode voltage-clamp amplifier holding the membrane potential at −60 mV (GeneClamp 500, Axon Instruments, Calif.). […] Membrane currents were recorded with a NIC-310 digital oscilloscope (Nicolet, Madison, Wis.). Applications were made at intervals of 15 mins (minimum) to allow for the appropriate washout and recovery from desensitization.
as §2
as §3, with “CA).” for “Calif.).”

[2] = tested on: LNCaP prostate cancer cell line; assay: Cytotoxicity / growth inhibition (SRB), LNCaP; conditions: 96 hours drug exposure, read-out: IC50 ± SEM, LNCaP
Experimental: as §1

human Edg-2 = molecular target: T1, human Edg-2 (Homo sapiens, UniProt Q92633); assay: Ca2+ responses (Fura-2) in RH7777 cells expressing Edg-2; conditions: 250 nM LPA 18:1 mixed with 10 μM lipid
T1 construct: expressed in transfected cells
Experimental: (§4) RH7777 cells were transfected with the cDNA constructs encoding human Edg-2, Edg-4, or Edg-7 and then were subcloned into the pCDNA3 expression vector using the Cytofectene transfection reagent according to the manufacturers' protocol. Transfected cells were selected in DMEM containing 10% FBS and 1 mg/ml geneticin. Resistant cells were collected and subcloned by limiting dilution. The resulting clones were then screened using functional assays and RT-PCR analysis. Data are representative of three individual clones.

human Edg-7 = molecular target: T2, human Edg-7 (Homo sapiens, UniProt Q9UBY5); assay: Ca2+ responses (Fura-2) in RH7777 cells expressing Edg-7; conditions: 250 nM LPA 18:1 mixed with 500 nM lipid
T2 construct: Flag; expressed in transfected cells
T2 sequence (Q9UBY5 1-353): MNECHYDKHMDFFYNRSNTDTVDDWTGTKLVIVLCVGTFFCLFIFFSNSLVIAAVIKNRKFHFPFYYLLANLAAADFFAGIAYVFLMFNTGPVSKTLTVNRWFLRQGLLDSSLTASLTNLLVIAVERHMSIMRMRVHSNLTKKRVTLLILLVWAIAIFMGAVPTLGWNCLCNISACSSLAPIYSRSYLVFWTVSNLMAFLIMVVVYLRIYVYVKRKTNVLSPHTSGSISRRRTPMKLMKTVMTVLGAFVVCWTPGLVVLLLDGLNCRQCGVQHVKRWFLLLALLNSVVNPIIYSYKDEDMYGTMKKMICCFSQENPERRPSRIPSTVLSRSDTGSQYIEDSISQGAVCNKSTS
Experimental: as §4

Sequence of PSP24 PLGFR (P79945 whole entry): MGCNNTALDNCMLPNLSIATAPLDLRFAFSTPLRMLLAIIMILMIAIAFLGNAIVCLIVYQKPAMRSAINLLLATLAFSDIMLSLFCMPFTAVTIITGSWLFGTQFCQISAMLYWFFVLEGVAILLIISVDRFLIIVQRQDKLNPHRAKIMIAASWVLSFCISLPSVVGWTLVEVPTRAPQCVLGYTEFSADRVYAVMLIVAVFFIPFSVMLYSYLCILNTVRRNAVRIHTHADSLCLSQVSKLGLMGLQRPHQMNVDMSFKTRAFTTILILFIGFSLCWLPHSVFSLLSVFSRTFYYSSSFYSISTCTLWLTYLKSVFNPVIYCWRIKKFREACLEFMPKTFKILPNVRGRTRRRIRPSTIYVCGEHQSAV
T1 sequence (Q92633 whole entry): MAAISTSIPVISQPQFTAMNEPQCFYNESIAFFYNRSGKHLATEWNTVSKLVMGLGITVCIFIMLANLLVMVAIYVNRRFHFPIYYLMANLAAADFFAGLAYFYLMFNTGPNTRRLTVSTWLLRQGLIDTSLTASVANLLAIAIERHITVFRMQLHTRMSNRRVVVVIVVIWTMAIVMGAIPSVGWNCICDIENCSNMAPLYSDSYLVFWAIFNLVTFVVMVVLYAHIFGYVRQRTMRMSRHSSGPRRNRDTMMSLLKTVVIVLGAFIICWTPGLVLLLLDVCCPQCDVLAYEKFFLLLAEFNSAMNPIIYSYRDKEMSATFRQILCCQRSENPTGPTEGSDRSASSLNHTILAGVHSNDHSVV

Compound: CCCCCCCCCCCCCCOc1ccc(NC(=O)C(N)CO)cc1 (centres unmarked) [Compound 38, N-1-[4-(tetradecyloxy)phenyl]-2-amino-3-hydroxypropanamide trifluoroacetate]
- IC50 [1]: 38.9 ± 8.9 µM

Compound: CCCCCCCCCCCCCCCCCCC(=O)OCC(COP(=O)(O)O)OP(=O)(O)O (centres unmarked) [Compound 90, 1,2-(3-Nonadecanoyloxypropane)-bis(dihydrogen phosphate)]
- IC50 [1]: > 50 µM

- reversibility of inhibition of LPA-induced chloride currents (PSP24 PLGFR): reversible
Compound: CCCCCCCCCCCCCCNC(=O)C(N)COP(=O)(O)O (centres unmarked) [Compound 56, 2-Amino-3-oxo-3-(tetradecylamino)propyl dihydrogen phosphate]
- inhibition of LPA-induced chloride currents (PSP24 PLGFR): inhibitors of LPA-induced chloride current

Compound: CCCCCCCCCCCCCCCCCCNC(=O)C(N)COP(=O)(O)O (centres unmarked) [Compound 57, 2-Amino-3-(octadecylamino)-3-oxopropyl dihydrogen phosphate]
- inhibition of LPA-induced chloride currents (PSP24 PLGFR): inhibitors of LPA-induced chloride current
- reversibility of inhibition of LPA-induced chloride currents (PSP24 PLGFR): reversible

- reversibility of inhibition of LPA-induced chloride currents (PSP24 PLGFR): reversible
Compound: CCCCCCCCCCCCCCCCCCCCCC(=O)OCC(COP(=O)(O)O)OP(=O)(O)O (centres unmarked) [Compound 92, 1,2-(3-Docosanoyloxypropane)-bis(dihydrogen phosphate)]
- inhibition of LPA-induced chloride currents (PSP24 PLGFR): inhibitors of LPA-induced chloride current

- inhibition of LPA-induced response (PSP24 PLGFR; against 2 nM LPA, compound concentration not given): 59%
Compound: CCCCCCCCCCCCCCCCCC(=O)OCC(COP(=O)(O)O)OP(=O)(O)O (centres unmarked) [Compound 89, 1,2-(3-Octadecanoyloxypropane)-bis(dihydrogen phosphate)]

- threshold to elicit a response alone (PSP24 PLGFR): ~100 nM
Compound: CCCCCCCCCCCCCC(=O)OCC(COP(=O)(O)O)OP(=O)(O)O (centres unmarked) [Compound 85, 1,2-(3-Tetradecanoyloxypropane)-bis(dihydrogen phosphate)]
- IC50 [2]: 11.6 ± 10.3 µM

- inhibitory effect on LPA-elicited Ca2+ response (human Edg-2): no longer had an inhibitory effect
- effect on LPA-elicited Ca2+ responses (human Edg-7): did not have an inhibitory effect
Compound: diacyl glycerol [DAG 18:1]

- threshold to elicit a response alone (PSP24 PLGFR): ~1000 nM
Compound: CCCCCCCCCCCCOCC(COP(=O)(O)O)OP(=O)(O)O (centres unmarked) [Compound 67, 1,2-(3-Dodecyloxypropane)-bis(dihydrogen phosphate)]
- IC50 [2]: 25.2 ± 12.3 µM

- Ca2+ response, % of control (human Edg-2): 64 % of control
Compound: diacyl glycerol [DAG 8:0]
- effect on LPA-elicited Ca2+ responses (human Edg-7): significantly increased the Ca^2+ responses

Compound: CCCCCCCCCCCCCCCCCCCC(=O)OCC(COP(=O)(O)O)OP(=O)(O)O (centres unmarked) [Compound 91, 1,2-(3-Icosanoyloxypropane)-bis(dihydrogen phosphate)]
- IC50 [1]: 42.2 ± 1.9 µM

- threshold to elicit a response alone (PSP24 PLGFR): ~10 nM
Compound: CCCCCCCCCCCCCCCCOCC(COP(=O)(O)O)OP(=O)(O)O (centres unmarked) [Compound 68, 1,2-(3-Hexadecyloxypropane)-bis(dihydrogen phosphate)]
- IC50 [2]: 29.3 ± 21.7 µM

Source: patent publication US6875757B2, “LPA receptor agonists and antagonists and methods of use” (University of Tennessee Research Foundation, priority 2000, dated 2005)
